Test results reported in ChEMBL document CHEMBL1137681, “Design, synthesis and characterization of N9/N7-substituted 6-aminopurines as VEGF-R and EGF-R inhibitors” (Eur J Med Chem, 2009).
Activity calls are given as the source filed them.

Columns and labels:
[1] = biological target: Vascular endothelial growth factor receptor 2 (Homo sapiens, UniProt P35968); assay: Inhibition of VEGFR2 up to 100 uM
[2] = biological target: Serine/threonine-protein kinase N2 (Homo sapiens) (UniProt Q16513); assay: Inhibition of PRK2 at 10 uM
[3] = biological target: Protein kinase C alpha type (Homo sapiens) (UniProt P17252); assay: Inhibition of PKCalpha at 10 uM
[4] = tested on: Serine/threonine-protein kinase Sgk1 (Homo sapiens), O00141 [S422D]; assay: Inhibition of SGK1 S422D mutant at 10 uM
[5] = biological target: Serine/threonine-protein kinase Chk1 (Homo sapiens) (UniProt O14757); assay: Inhibition of CHK1 at 10 uM
[6] = Inhibition of CK2 at 10 uM
[7] = biological target: Serine/threonine-protein kinase PAK 6 (Homo sapiens) (UniProt Q9NQU5); assay: Inhibition of human PAK6 at 10 uM
[8] = biological target: Serine/threonine-protein kinase PAK 4 (Homo sapiens) (UniProt O96013); assay: Inhibition of human PAK4 at 10 uM
[9] = biological target: Homeodomain-interacting protein kinase 2 (Homo sapiens) (UniProt Q9H2X6); assay: Inhibition of human HIPK2 at 10 uM
[10] = biological target: Rho-associated protein kinase 2 (Rattus norvegicus) (UniProt Q62868); assay: Inhibition of rat ROCK2 at 10 uM
Rattus norvegicus = species on record: Rattus norvegicus; assay: Inhibition of rat AMPK at 10 uM
[11] = biological target: Proto-oncogene tyrosine-protein kinase Src (Gallus gallus) (UniProt P00523); assay: Inhibition of chick SRC at 10 uM
[12] = biological target: MAP kinase-activated protein kinase 3 (Homo sapiens) (UniProt Q16644); assay: Inhibition of MAPKAP-K3 at 10 uM
[13] = biological target: Serine/threonine-protein kinase pim-1 (Homo sapiens) (UniProt P11309); assay: Inhibition of human PIM1 at 10 uM
[14] = biological target: Homeodomain-interacting protein kinase 3 (Homo sapiens) (UniProt Q9H422); assay: Inhibition of human HIPK3 at 10 uM
[15] = tested on: RAC-alpha serine/threonine-protein kinase (Homo sapiens), P31749 [S473D]; assay: Inhibition of PKBalpha S473D mutant at 10 uM
[16] = biological target: Dual specificity mitogen-activated protein kinase kinase 1 (Oryctolagus cuniculus) (UniProt P29678); assay: Inhibition of rabbit MKK1 at 10 uM
[17] = biological target: Ribosomal protein S6 kinase alpha-5 (Homo sapiens) (UniProt O75582); assay: Inhibition of MSK1 at 10 uM
[18] = biological target: Serine/threonine-protein kinase PLK1 (Homo sapiens) (UniProt P53350); assay: Inhibition of human PLK1 at 10 uM
[19] = biological target: Mitogen-activated protein kinase 1 (Mus musculus) (UniProt P63085); assay: Inhibition of mouse MAPK2 at 10 uM
[20] = biological target: MAP kinase-activated protein kinase 5 (Homo sapiens) (UniProt Q8IW41); assay: Inhibition of PRAK at 10 uM
[21] = biological target: Mitogen-activated protein kinase 14 (Homo sapiens) (UniProt Q16539); assay: Inhibition of SAPK2a at 10 uM
[22] = biological target: Lymphokine-activated killer T-cell-originated protein kinase (Homo sapiens) (UniProt Q96KB5); assay: Inhibition of PBK at 10 uM
[23] = biological target: Ribosomal protein S6 kinase alpha-3 (Homo sapiens) (UniProt P51812); assay: Inhibition of RSK2 at 10 uM
[24] = biological target: MAP kinase-activated protein kinase 2 (Homo sapiens) (UniProt P49137); assay: Inhibition of MAPKAP-K2 (delta 1-45) at 10 uM
[25] = biological target: Fibroblast growth factor receptor 1 (Homo sapiens) (UniProt P11362); assay: Inhibition of human FGFR1 at 10 uM
[26] = biological target: Serine/threonine-protein kinase Nek2 (Homo sapiens) (UniProt P51955); assay: Inhibition of NEK2a at 10 uM
[27] = biological target: Mitogen-activated protein kinase 3 (Homo sapiens) (UniProt P27361); assay: Inhibition of human ERK1 at 10 uM
[28] = biological target: SRSF protein kinase 1 (Homo sapiens) (UniProt Q96SB4); assay: Inhibition of SRPK1 at 10 uM
[29] = biological target: Casein kinase I isoform delta (Rattus norvegicus) (UniProt Q06486); assay: Inhibition of rat CK1delta (1-294) at 10 uM
[30] = biological target: Serine/threonine-protein kinase Chk2 (Homo sapiens) (UniProt O96017); assay: Inhibition of CHK2 at 10 uM
[31] = biological target: Serine/threonine-protein kinase TBK1 (Homo sapiens) (UniProt Q9UHD2); assay: Inhibition of human TBK1 at 10 uM
[32] = biological target: Insulin receptor-related protein (Homo sapiens) (UniProt P14616); assay: Inhibition of human IRR at 10 uM
[33] = biological target: Dual specificity tyrosine-phosphorylation-regulated kinase 3 (Homo sapiens) (UniProt O43781); assay: Inhibition of human DYRK3 at 10 uM
[34] = biological target: Mitogen-activated protein kinase 15 (Homo sapiens) (UniProt Q8TD08); assay: Inhibition of ERK8 at 10 uM
[35] = biological target: Serine/threonine-protein kinase Nek6 (Homo sapiens) (UniProt Q9HC98); assay: Inhibition of NEK6 at 10 uM

Measured: inhibition

Chain of Ribosomal protein S6 kinase alpha-5 (Homo sapiens) (O75582 whole entry, looked up): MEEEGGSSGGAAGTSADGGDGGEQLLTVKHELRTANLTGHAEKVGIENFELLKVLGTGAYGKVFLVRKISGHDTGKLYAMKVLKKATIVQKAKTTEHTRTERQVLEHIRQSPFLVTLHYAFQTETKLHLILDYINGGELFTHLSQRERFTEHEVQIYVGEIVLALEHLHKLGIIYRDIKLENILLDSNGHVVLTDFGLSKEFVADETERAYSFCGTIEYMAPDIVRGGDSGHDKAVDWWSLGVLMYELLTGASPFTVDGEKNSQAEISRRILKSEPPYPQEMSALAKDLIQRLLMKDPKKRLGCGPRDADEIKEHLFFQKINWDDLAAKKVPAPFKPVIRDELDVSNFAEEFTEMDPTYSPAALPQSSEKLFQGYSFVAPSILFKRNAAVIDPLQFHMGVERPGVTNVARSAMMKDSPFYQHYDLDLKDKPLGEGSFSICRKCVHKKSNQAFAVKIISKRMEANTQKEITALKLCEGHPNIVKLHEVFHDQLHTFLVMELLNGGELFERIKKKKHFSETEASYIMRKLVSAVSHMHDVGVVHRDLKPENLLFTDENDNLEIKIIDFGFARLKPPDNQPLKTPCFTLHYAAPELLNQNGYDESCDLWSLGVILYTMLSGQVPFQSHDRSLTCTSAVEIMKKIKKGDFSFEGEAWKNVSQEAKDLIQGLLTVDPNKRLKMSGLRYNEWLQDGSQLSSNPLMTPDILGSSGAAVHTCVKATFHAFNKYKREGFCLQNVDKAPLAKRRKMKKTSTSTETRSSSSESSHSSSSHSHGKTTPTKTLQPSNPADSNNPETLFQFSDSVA
Chain of Dual specificity tyrosine-phosphorylation-regulated kinase 3 (Homo sapiens) (O43781 whole entry): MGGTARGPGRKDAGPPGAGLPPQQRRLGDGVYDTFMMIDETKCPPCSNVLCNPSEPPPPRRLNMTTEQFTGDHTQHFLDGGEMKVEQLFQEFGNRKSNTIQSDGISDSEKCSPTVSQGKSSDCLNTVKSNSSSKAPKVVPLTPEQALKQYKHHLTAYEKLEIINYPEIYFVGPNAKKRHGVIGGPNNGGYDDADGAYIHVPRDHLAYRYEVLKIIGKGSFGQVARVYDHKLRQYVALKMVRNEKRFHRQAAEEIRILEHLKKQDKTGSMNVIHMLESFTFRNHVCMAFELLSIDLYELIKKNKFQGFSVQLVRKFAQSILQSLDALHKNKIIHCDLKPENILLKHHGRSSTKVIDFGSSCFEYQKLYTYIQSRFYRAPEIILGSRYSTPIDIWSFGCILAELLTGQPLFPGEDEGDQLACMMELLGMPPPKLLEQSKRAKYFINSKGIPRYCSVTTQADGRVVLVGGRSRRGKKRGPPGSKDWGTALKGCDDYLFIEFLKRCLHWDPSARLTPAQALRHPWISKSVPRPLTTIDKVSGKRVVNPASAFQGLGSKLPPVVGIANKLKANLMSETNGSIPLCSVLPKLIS
Chain of Rho-associated protein kinase 2 (Rattus norvegicus) (Q62868 whole entry, looked up): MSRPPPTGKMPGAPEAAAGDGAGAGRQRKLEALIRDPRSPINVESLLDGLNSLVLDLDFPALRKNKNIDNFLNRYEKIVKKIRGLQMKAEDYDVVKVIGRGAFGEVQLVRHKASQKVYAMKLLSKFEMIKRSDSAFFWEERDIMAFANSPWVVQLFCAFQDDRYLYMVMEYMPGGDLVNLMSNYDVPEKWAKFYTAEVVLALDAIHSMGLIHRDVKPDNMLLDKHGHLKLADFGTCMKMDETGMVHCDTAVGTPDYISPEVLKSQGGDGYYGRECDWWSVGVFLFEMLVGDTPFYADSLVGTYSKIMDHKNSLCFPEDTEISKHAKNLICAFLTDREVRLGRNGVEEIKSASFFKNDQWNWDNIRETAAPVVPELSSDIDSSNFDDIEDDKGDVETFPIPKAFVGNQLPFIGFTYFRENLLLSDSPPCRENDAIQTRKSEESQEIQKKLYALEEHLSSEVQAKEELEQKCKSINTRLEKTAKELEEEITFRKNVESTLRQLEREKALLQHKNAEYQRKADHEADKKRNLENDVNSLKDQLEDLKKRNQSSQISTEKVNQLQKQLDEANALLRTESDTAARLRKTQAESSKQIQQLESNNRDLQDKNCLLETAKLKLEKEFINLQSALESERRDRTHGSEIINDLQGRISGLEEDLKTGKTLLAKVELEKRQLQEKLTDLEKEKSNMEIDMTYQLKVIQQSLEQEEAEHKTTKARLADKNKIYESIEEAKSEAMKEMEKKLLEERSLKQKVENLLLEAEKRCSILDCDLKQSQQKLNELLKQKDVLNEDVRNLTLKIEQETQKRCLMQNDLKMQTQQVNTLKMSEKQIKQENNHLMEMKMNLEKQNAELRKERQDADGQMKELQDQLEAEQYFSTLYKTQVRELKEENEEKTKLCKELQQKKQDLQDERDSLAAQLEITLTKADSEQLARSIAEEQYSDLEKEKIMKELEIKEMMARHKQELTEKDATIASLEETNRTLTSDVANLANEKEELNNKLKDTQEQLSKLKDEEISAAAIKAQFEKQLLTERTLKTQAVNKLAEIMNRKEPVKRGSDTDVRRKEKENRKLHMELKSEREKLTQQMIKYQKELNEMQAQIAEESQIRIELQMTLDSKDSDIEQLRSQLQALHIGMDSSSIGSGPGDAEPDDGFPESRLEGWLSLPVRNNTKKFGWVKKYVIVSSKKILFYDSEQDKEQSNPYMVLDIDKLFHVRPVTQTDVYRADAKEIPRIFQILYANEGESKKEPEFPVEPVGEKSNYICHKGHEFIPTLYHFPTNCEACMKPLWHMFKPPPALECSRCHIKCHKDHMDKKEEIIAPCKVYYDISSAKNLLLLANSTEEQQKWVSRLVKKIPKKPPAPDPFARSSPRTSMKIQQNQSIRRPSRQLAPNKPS
Chain of Serine/threonine-protein kinase PAK 6 (Homo sapiens) (Q9NQU5 whole entry, looked up): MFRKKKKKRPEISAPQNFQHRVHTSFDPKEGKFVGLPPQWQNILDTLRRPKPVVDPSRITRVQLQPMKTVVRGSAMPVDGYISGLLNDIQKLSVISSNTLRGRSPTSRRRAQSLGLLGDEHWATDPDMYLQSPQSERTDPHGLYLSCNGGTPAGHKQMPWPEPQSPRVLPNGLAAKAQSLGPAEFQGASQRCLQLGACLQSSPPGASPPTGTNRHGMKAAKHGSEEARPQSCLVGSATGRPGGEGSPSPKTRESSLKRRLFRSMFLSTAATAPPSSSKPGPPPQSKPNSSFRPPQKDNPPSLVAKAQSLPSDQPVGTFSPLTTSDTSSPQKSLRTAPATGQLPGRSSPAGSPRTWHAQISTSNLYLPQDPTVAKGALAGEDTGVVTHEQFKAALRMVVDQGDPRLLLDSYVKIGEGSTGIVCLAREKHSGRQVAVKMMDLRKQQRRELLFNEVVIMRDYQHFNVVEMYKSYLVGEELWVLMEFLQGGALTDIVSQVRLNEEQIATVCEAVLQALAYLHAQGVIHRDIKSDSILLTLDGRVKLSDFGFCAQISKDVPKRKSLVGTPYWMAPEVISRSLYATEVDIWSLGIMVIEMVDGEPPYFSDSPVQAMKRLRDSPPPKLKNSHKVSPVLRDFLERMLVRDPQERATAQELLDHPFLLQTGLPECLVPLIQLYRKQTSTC
Chain of Mitogen-activated protein kinase 1 (Mus musculus) (P63085 whole entry): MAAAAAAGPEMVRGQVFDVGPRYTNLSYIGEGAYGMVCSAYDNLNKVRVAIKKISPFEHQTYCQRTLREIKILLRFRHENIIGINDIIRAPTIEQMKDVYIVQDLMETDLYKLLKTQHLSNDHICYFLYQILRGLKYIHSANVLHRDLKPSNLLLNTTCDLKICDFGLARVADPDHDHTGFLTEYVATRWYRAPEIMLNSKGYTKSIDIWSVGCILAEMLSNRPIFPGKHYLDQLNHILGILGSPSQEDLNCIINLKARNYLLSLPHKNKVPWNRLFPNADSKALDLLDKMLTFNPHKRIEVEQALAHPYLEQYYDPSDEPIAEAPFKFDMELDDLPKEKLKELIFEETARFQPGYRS
Chain of Ribosomal protein S6 kinase alpha-3 (Homo sapiens) (P51812 whole entry): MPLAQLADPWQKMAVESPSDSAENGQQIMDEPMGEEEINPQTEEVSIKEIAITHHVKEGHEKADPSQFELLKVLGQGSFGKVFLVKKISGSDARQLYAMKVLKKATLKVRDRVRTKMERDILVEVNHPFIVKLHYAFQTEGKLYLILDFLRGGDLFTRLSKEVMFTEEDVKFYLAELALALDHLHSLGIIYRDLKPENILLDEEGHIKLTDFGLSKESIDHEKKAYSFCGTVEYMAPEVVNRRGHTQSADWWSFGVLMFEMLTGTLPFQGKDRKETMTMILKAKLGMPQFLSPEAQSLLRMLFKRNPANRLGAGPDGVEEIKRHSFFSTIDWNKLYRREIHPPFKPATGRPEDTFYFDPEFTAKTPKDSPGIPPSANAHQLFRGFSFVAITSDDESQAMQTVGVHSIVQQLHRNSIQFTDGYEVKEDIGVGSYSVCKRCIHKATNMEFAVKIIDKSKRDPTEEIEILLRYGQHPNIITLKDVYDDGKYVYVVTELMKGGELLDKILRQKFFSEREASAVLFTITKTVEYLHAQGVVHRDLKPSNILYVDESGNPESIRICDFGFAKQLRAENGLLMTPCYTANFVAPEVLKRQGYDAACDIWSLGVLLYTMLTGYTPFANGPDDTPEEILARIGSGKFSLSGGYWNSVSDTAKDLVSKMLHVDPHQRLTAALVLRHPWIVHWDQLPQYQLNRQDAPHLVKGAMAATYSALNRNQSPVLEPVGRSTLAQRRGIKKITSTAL
Chain of Serine/threonine-protein kinase Chk1 (Homo sapiens) (O14757 whole entry): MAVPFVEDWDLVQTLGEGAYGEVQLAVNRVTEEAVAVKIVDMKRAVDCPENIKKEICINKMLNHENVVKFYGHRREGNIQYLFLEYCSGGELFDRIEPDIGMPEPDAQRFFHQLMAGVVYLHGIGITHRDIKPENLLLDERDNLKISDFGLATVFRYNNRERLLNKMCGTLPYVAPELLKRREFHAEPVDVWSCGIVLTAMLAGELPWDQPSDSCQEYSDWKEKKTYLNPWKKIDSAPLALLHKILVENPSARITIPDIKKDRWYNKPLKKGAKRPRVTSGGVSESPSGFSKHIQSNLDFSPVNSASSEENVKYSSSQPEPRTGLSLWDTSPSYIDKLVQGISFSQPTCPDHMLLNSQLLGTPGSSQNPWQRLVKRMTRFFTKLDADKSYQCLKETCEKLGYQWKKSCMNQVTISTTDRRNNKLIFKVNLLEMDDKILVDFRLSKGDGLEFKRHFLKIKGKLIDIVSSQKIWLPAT

Nc1ncnc2c1ncn2CC(=O)c1ccccc1
inactive: [1]

Nc1ncnc2ncn(CC(=O)c3c[nH]c4ccccc34)c12
not listed: [1]
inactive: all other assays above
